GI50 data for 16 compounds are collected here from ChEMBL document CHEMBL1134411, “Antitumor benzothiazoles. 14. Synthesis and in vitro biological properties of fluorinated 2-(4-aminophenyl)benzothiazoles” (2001).

Where only a bound is given, the exact number is not on record here.

Common to all, as to type: functional
For assay [1], the system named is HCC 2998. Description: Growth inhibition against colon cancer cell line HCC2998. The conditions noted are these: Homo sapiens.
Assay [2] in a line: Growth inhibition against ovarian cancer cell line IGROV1. The conditions noted are these: Homo sapiens, IGROV-1.
Assay [3] concerns MCF7. In words: Growth inhibition against breast cancer line MCF-7. To be noted: Homo sapiens.
Assay [4] can be described thus: Mean GI50 values are recorded over the NCI 60-cell panel. The conditions noted are these: Homo sapiens.
Assay [5] has as its system NCI-H226. In words: Growth inhibition against non-small cell lung cancer cell line […]. To be noted: Homo sapiens.
Assay [6] has as its system OVCAR-4. In words: Growth inhibition against ovarian cancer cell line OVCAR-4. The conditions noted are these: Homo sapiens.
For assay [7], the system named is OVCAR-5. Description: Growth inhibition against ovarian cancer cell line OVCAR-5. To be noted: Homo sapiens.
Assay [8] is described as follows: Growth inhibition against cancer cell line TH-10. To be noted: Homo sapiens, Cancer cell lines.
For assay [9], the system named is NCI-H460. Description: Growth inhibition against non-small cell lung cancer cell line NCI-H460. The conditions noted are these: Homo sapiens.
Assay [10] concerns T47D. Description: Growth inhibition against breast cancer line T-47-D. The conditions noted are these: Homo sapiens.

With `Nc1ccc(-c2nc3ccc(F)cc3s2)cc1`, the GI50 in assay [1] is 17.8 µM; in assay [2], 21.3 µM; in assay [3], less than 0.01 µM; in assay [4] it was 30.2 µM; in assay [5] it was 46.8 µM; in [6] it was 22.9 µM. The GI50 stood at 26.9 µM in assay [7], 26.3 µM in [8] and 24.5 µM in assay [9].

Consider `Cc1cc(-c2nc3ccc(O)cc3s2)ccc1N`, for which the GI50 in assay [1] is more than 100 µM; in [2] it was 47.9 µM; in assay [3], 56.2 µM; in assay [4], 41.7 µM; in assay [5], 60.3 µM; in assay [6] it was 37.2 µM. Moreover, the values for the GI50 in assay [7], in assay [10] and in assay [8] were 83.2 µM, 22.4 µM and 77.6 µM, respectively.

Consider `Nc1ccc(-c2nc3ccc(F)cc3s2)cc1I`, for which the GI50 is 0.32 µM in assay [1]; less than 0.01 µM in assay [2]; less than 0.01 µM in assay [3]; 33.9 µM in assay [4]; 0.07 µM in assay [5]; 0.03 µM in assay [6]. Further, the GI50 in [7] was 0.1 µM; in [10] it was less than 0.01 µM; in assay [8] it was less than 0.01 µM; in assay [9] it was more than 100 µM.

Take `Cc1cc(-c2nc3c(F)cccc3s2)ccc1N`: the GI50 is more than 100 µM in assay [1]; 22.9 µM in assay [2]; less than 0.01 µM in assay [3]; 34.6 µM in assay [4]; 5.5 µM in assay [5]; 20.9 µM in [6]. In addition, the GI50 was 1.7 µM in assay [7], less than 0.01 µM in [10] and 1 µM in assay [9].

For `Cc1cc(-c2nc3cc(F)c(F)cc3s2)ccc1N`, the GI50 in assay [1] is more than 100 µM; in assay [2] it was less than 0.01 µM; in [3], less than 0.01 µM; in assay [4], 67.6 µM; in [6] it was 60.3 µM; in assay [7] it was more than 100 µM. The 50% growth inhibitory concentration (GI50) is less than 0.01 µM in [10], less than 0.01 µM in assay [8] and more than 100 µM in [9].

For `Nc1ccc(-c2nc3cc(F)ccc3s2)cc1Cl`, the GI50 in assay [2] is less than 0.01 µM; in assay [3], less than 0.01 µM; in assay [4], 5.8 µM; in assay [5], 0.03 µM; in assay [6], 0.32 µM; in assay [7] it was less than 0.01 µM. For the same compound, the concentration for 50% growth inhibition (GI50) in assay [10] and in assay [9] was 0.04 µM each time.

On to `Nc1ccc(-c2nc3ccccc3s2)cc1C(F)(F)F`, for which the GI50 in assay [1] is 10.7 µM; in assay [2], 2.6 µM; in assay [3], 1.5 µM; in [4], 14.1 µM; in assay [5], 15.1 µM; in assay [6] it was 15.8 µM. Further, the GI50 amounted to 17.4 µM in assay [7], 5.4 µM in assay [10], 13.2 µM in [8] and 14.5 µM in assay [9].

Turning to `Cc1cc(-c2nc3ccccc3s2)ccc1N`, the 50% growth inhibitory concentration (GI50) was less than 0.01 µM in assay [2]; less than 0.01 µM in assay [3]; 12.9 µM in assay [4]; 18.6 µM in assay [5]; 1.1 µM in assay [6]; 1.9 µM in assay [7]. Also, the GI50 is 0.02 µM in [10], less than 0.01 µM in assay [8] and 29.5 µM in assay [9].

Consider `Cc1cc(-c2nc3cc(F)ccc3s2)ccc1N`, for which the GI50 in [2] was less than 0.01 µM; in assay [3], less than 0.01 µM; in [4], 4.4 µM; in [5], 1.3 µM; in [6], less than 0.01 µM; in assay [7], less than 0.01 µM. The GI50 in assay [10] is less than 0.01 µM; in assay [8], less than 0.01 µM; in [9] it was 0.05 µM.

Take `Cc1cc(-c2nc3cccc(F)c3s2)ccc1N`: the 50% growth inhibitory concentration (GI50) was 13.8 µM in assay [1]; 0.07 µM in assay [2]; less than 0.01 µM in [3]; 20 µM in assay [4]; 7.4 µM in [6]; 1.3 µM in assay [7]. The GI50 turned out to be 0.02 µM in assay [10], 0.04 µM in [8] and 4.2 µM in assay [9].

For `Nc1ccc(-c2nc3ccc(F)cc3s2)cc1Cl`, the GI50 was 0.09 µM in [1]; less than 0.01 µM in assay [2]; less than 0.01 µM in assay [3]; 22.3 µM in assay [4]; 14.1 µM in [5]; 0.02 µM in [6]. Further, the GI50 in assay [7] is 0.07 µM; in assay [8], less than 0.01 µM; in assay [9], 0.1 µM.

For the compound `Cc1cc(-c2nc3ccc(F)cc3s2)ccc1N`, the 50% growth inhibitory concentration (GI50) in assay [1] was 34.7 µM; in [2] it was 1.3 µM; in [3] it was less than 0.01 µM; in assay [4], 47.9 µM; in assay [5], 60.3 µM; in assay [6] it was 0.01 µM. Also, the GI50 in assay [7] is more than 100 µM; in assay [8], less than 0.01 µM; in assay [9] it was 0.1 µM.

`Nc1ccc(-c2nc3ccccc3s2)cc1F`: the 50% growth inhibitory concentration (GI50) was 0.1 µM in assay [1]; less than 0.01 µM in [2]; less than 0.01 µM in [3]; 14.5 µM in assay [4]; less than 0.01 µM in assay [5]; 18.6 µM in [6]. The GI50 in [7], in [10], in assay [8] and in assay [9] was less than 0.01 µM in each case.

As for `Nc1ccc(-c2nc3cc(F)ccc3s2)cc1Br`, the GI50 in [1] was less than 0.01 µM; in assay [2] it was less than 0.01 µM; in assay [3], less than 0.01 µM; in assay [4] it was 5.1 µM; in [5], 0.13 µM; in assay [6] it was 24 µM. For the same compound, the GI50 in assay [7] is 0.05 µM; in assay [10], 0.02 µM; in assay [8], 0.05 µM; in [9], 0.11 µM.

For the compound `Nc1ccc(-c2nc3cc(F)ccc3s2)cc1I`, the GI50 is less than 0.01 µM in assay [1]; less than 0.01 µM in [2]; less than 0.01 µM in assay [3]; 7.6 µM in [4]; 10.2 µM in assay [5]; less than 0.01 µM in [6]. Also, the GI50 worked out at 0.28 µM in [7], 0.13 µM in assay [10] and 0.07 µM in [8].

As to `Nc1ccc(-c2nc3cc(F)ccc3s2)cc1`, the GI50 was 11.5 µM in assay [2]; less than 0.01 µM in assay [3]; 23.4 µM in assay [4]; less than 0.01 µM in assay [5]; 13.5 µM in [6]; 29.5 µM in assay [7]. The results for the GI50 in assay [10], in assay [8] and in assay [9] were 0.26 µM, 11.5 µM and 0.87 µM, respectively.
